From US7101878B1 (Agouron Pharmaceuticals, Inc., priority 1998, dated 2006)
Blank lines part the entries; values can stand above or below the molecule they belong to.

Legend:
[1] = tested on: testosterone levels in intact male rats; test: Intact male rat, testosterone suppression; assay type: in vivo
From the text: Testosterone is a hormone regulated by the hypothalamic-pituitary-gonadal axis. GnRH is secreted in pulses from the hypothalamus and stimulates the anterior pituitary gland to release gonadotropic hormones LH and FSH. Testosterone is produced when the testes are stimulated by LH. The quantity of testosterone secreted increases approximately in direct proportion to the amount of LH available (Guyton, 1986).
Male Sprague-Dawley (250-275 g) rats were single-housed and allowed to acclimate for 1 week prior to study. On study day animals were dosed with vehicle or test compound by various routes of administration, including ip, sc, or po. Blood samples were obtained via cardiac puncture under halothane anesthesia from individual animals at predetermined time points post treatment. Blood samples were drawn into heparin containing tubes. Blood was centrifuged immediately, plasma collected and stored in −20° freezer until assayed. Plasma samples were analyzed using DSL-4000 ACTIVE Testosterone coated-tube raduioimmunoassay kit from Diagnostic Systems Laboratories, Inc.
Male Sprague-Dawley (250-275 g) rats were single-housed and allowed to acclimate for 1 week prior to study. We developed a technique to allow for repeated sampling from the jugular vein by using microrenathane (MRE) catheters implanted 7 days prior to study. Details of the surgical procedure have been described previously {Harms and Ojeda, 1974}. On study day, animals were allowed to acclimate to the procedure room while residing in their home cage. Basal blood samples were drawn from all animals. Immediately following basal sampling, vehicle or test compounds were administered by various routes. The routes of administration employed were intravenous (iv), intramuscular (im), and oral (po). Blood samples were drawn into heparin containing tubes at multiple time points post treatment. Blood was centrifuged immediately, plasma collected and stored in −20° freezer until assayed. Plasma samples were analyzed using DSL-4000 ACTIVE Testosterone coated-tube raduioimmunoassay kit from Diagnostic Systems Laboratories, Inc.
Male Sprague-Dawley (250-275 g) rats were double-housed and allowed to acclimate for 1 week prior to study. Daily vehicle treatments were administered either, im, sc, or po between 8:00 and 9:00 am for seven days. On day 8 between 8:00 and 9:00 am, blood samples were drawn via cardiac puncture under halothane anesthesia. The procedure was complete in 45-60 seconds. Over the next 7 days one groups of animals continued to receive vehicle treatments while another group of animals received no treatment. Samples were collected as described above following the 7th day of this treatment regimen. Testosterone levels were not different between vehicle treated animals and untreated animals.
Daily im dosing of Compound 134 (100 mg/kg) or vehicle was performed between 8:00 and 9:00 am for seven days. Samples were collected as described above following the 7th day of treatment.
All blood samples were collected in heparin containing tubes. Blood was centrifuged immediately, plasma collected and stored in −20° freezer until assayed the next day. Plasma samples were analyzed using DSL-4000 ACTIVE Testosterone coated-tube raduioimmunoassay kit from Diagnostic Systems Laboratories, Inc.

[2] = biological target: Bradykinin 2 (Homo sapiens, UniProt P30411); test: biochemical
Bradykinin 2, sequence (P30411 whole entry): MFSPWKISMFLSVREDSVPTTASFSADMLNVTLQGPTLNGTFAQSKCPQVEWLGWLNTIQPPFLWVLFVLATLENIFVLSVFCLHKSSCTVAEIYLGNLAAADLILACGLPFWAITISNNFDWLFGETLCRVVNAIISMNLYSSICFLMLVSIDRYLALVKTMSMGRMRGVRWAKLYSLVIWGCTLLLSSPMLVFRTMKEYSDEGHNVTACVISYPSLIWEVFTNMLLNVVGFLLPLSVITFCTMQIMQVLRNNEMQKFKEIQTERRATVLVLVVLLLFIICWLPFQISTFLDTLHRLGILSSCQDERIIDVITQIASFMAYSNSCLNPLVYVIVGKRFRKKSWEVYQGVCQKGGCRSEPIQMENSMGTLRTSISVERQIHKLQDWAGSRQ

[3] = tested on: rat mast cells; test: Selectivity: Basal Histamine Release (rat mast cells); settings: Mast cell, read-out: Basal Histamine Release (rat mast cells) EC50
[4] = biological target: H1 Histamine (Homo sapiens, UniProt P35367); test: Selectivity: H1 Histamine
H1 Histamine, sequence (P35367 whole entry): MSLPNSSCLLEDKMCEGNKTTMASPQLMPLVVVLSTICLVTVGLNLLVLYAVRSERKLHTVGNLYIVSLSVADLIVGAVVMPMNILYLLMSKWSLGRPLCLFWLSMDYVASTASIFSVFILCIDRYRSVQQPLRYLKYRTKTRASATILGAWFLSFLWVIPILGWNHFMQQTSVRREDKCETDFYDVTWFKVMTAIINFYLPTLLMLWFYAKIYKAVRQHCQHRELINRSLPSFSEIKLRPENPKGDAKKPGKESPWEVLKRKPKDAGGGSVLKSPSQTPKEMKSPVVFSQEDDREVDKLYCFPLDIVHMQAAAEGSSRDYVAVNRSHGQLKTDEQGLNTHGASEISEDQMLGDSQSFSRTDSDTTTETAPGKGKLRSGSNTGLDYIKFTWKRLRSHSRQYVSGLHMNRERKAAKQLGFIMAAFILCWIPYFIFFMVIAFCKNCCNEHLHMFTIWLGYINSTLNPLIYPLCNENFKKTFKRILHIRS

[5] = biological target: RARγ Retinoid (Homo sapiens, UniProt P13631); test: biochemical
RARγ Retinoid, sequence (P13631 whole entry): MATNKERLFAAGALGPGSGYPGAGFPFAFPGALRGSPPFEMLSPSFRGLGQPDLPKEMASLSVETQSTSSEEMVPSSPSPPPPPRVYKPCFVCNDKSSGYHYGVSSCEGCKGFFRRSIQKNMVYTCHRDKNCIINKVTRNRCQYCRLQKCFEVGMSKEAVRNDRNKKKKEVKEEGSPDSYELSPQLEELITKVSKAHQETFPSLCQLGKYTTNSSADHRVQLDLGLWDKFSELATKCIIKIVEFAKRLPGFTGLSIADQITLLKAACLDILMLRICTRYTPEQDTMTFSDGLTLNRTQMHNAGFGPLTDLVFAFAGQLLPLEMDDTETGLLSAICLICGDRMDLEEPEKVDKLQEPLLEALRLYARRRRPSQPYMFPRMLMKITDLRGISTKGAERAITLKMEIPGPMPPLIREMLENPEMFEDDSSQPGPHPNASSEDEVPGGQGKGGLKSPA

[6] = biological target: NK2 (Homo sapiens, UniProt P21452); test: biochemical
NK2, sequence (P21452 whole entry): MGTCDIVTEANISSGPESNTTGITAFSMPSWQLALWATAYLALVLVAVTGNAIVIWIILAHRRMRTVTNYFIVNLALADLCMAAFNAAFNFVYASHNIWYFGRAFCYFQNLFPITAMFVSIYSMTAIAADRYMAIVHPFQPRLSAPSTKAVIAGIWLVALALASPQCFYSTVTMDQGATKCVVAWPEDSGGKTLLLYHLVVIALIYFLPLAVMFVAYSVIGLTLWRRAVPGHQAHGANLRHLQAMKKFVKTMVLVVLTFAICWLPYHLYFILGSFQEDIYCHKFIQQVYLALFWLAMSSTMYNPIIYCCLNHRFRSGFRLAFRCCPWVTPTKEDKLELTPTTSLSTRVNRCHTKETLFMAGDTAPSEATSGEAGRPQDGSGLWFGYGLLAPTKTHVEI

[7] = biological target: PAF (Homo sapiens, UniProt P25105); test: biochemical
PAF, sequence (P25105 whole entry): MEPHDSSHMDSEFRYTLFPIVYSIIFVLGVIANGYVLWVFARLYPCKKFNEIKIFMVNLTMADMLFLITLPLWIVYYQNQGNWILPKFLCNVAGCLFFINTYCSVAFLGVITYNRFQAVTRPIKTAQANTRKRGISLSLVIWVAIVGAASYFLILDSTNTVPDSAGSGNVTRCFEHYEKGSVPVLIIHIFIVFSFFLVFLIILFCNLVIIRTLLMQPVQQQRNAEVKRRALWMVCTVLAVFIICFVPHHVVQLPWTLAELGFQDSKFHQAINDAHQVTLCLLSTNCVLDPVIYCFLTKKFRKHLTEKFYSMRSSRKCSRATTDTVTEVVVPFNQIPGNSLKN

[8] = biological target: Choline Acetyltransferase (Homo sapiens, UniProt P28329); test: biochemical
Choline Acetyltransferase, sequence (P28329 whole entry): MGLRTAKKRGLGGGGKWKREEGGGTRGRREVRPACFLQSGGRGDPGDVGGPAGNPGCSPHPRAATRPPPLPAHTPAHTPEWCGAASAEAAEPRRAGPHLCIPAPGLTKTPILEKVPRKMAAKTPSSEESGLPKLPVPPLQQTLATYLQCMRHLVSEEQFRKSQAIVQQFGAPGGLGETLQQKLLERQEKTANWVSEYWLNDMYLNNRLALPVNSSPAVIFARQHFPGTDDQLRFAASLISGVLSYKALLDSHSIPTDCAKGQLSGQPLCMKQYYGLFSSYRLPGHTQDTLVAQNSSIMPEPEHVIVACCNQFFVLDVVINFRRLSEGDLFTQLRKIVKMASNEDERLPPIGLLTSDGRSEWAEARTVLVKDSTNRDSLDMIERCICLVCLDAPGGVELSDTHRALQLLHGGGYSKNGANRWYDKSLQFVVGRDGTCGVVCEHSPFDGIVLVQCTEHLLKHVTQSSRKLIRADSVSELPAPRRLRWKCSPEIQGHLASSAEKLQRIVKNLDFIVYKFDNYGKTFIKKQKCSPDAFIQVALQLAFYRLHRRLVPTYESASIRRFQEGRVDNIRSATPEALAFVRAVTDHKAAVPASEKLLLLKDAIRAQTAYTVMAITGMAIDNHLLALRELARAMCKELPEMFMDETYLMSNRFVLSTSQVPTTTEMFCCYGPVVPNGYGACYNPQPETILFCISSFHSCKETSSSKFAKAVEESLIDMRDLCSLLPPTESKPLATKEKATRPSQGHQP

[9] = biological target: LTD4 (Homo sapiens, UniProt Q9Y271); test: biochemical
LTD4, sequence (Q9Y271 whole entry): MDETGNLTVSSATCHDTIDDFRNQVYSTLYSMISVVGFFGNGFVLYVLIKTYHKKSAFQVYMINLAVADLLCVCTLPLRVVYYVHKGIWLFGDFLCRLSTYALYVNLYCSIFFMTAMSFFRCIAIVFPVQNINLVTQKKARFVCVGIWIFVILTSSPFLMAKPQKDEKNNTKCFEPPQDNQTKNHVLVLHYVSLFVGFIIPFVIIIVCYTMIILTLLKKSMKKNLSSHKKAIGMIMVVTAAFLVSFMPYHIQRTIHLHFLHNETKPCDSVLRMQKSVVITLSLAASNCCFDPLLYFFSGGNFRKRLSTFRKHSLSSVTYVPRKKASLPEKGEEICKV

[10] = biological target: AchE (Homo sapiens, UniProt P22303); test: Selectivity: AchE
AchE, sequence (P22303 32-614): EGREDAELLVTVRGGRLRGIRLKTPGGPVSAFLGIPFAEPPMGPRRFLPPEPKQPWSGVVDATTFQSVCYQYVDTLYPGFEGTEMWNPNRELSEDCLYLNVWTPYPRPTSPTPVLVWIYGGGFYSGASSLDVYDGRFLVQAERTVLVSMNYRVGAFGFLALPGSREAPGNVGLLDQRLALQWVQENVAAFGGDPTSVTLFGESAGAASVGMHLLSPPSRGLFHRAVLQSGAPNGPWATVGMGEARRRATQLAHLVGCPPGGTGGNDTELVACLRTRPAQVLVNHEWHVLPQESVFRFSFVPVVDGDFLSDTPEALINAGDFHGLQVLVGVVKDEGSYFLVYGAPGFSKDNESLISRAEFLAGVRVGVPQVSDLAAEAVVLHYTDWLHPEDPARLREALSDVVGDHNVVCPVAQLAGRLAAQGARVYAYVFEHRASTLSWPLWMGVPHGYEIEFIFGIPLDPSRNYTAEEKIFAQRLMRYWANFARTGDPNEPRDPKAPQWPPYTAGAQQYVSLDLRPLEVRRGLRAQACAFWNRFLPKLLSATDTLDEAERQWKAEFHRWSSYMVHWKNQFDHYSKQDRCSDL

[11] = biological target: T1, rat GnRH receptor (Rattus norvegicus, UniProt P30969); test: Total inositol phosphates measurement, GGH3 cells; assay type: cell-based; settings: PI (inositol phosphates)
T1 sequence (P30969 1-327): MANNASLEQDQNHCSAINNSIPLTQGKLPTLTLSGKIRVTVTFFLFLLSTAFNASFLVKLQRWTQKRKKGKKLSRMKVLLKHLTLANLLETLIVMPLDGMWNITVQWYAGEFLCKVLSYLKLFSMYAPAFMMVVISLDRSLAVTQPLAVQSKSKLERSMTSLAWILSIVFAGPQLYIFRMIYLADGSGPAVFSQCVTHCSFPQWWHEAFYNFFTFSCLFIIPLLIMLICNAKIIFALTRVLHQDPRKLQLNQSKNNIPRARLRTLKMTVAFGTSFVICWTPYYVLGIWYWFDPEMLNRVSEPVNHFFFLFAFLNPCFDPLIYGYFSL
Protocol: In another test, accumulation of total inositol phosphates may be measured by formic acid extraction from cells, followed by separation of the phosphates on Dowex columns. Cells are split using trypsin into two 12-well plates and pre-labeled with ^3H-myoinositol ([…]-2 mCi per mL) for 16-18 hours in inositol-free medium. The medium is then aspirated and the cells rinsed with either 1×HBSS, 20 mM HEPES (pH 7.5), or serum-free DMEM, 1×HBSS, 20 mM HEPES (pH 7.5) containing agonist, and 20 mM LiCl is then added and the cells are incubated for the desired time. The medium is aspirated and the reaction stopped by addition of ice-cold 10 mM formic acid, which also serves to extract cellular lipids. […] The columns are then washed with 10 mL of […] sodium formate and 5 mM borax, and total inositol phosphates are eluted with 4.5 mL 1M ammonium formate, 0.1M formic acid.
These cells have been extensively characterized previously (Kaiser et al., 1997). These cells were grown in low glucose Dulbecco's modified Eagle's medium (DMEM) containing: 100U/mL penicillin/streptomycin, 0.6 g/L G418 and 10% beat-inactivated fetal bovine serum
This cell line was provided by Dr. Stuart Sealfon, Mount Sinai Medical School New York, N.Y. These cells were grown in DMEM supplemented with 0.2 g/L G418 100 U/ml penicillin/streptomycin and 10% FBS. […]

SMILES: COc1cc(OC)c(NC(=O)c2ccc(Cc3cc4c(cc3C)C(C)(C)CCC4(C)C)o2)c(OC)c1 [Compound 134]
% Testosterone suppression ([1]; 20 mg/kg ip): 36%
Range of Plasma Conc. ([1]; 20 mg/kg ip): 0.2 µM
Suppression Duration ([1]; 20 mg/kg ip): 4 h
time of % Testosterone suppression ([1]; 20 mg/kg ip): 4 h
Range of Plasma Conc. ([1]; 20 mg/kg po, @ 1 hr): 1.1 @ 1 hr μM
Range of Plasma Conc. ([1]; 20 mg/kg po, @ 2 hr): 0.15 @ 2 hr μM
Range of Plasma Conc. ([1]; 20 mg/kg po, @ 4 hr): 0.17 @ 4 hr μM
% Testosterone suppression ([1]; 50 mg/kg po): 75%
Suppression Duration ([1]; 50 mg/kg po): 8 h
time of % Testosterone suppression ([1]; 50 mg/kg po): 4 h
% Testosterone suppression ([1]; 100 mg/kg im*, 7 days): 80%
Suppression Duration ([1]; 100 mg/kg im*, 7 days): 12 h
time of % Testosterone suppression ([1]; 100 mg/kg im*, 7 days): 12 h
% Testosterone suppression ([1]; 100 mg/kg po): 80%
Suppression Duration ([1]; 100 mg/kg po): 12 h
time of % Testosterone suppression ([1]; 100 mg/kg po): 6 h
% Testosterone suppression ([1]; 100 mg/kg sc): 60%
Range of Plasma Conc. ([1]; 100 mg/kg sc): 0.13 µM
Suppression Duration ([1]; 100 mg/kg sc): 24 h
time of % Testosterone suppression ([1]; 100 mg/kg sc): 24 h
testosterone levels ([1]; 7 days of repeated treatment, 100 mg/kg im daily, p<0.05): significantly suppressed testosterone levels
testosterone levels ([1]; oral gavage, highest dose, 12 hour time course and 24 hour time point): suppressed testosterone throughout the course of the study

SMILES: COc1cccc(OC)c1NC(=O)c1ccc(Cc2cc3c(cc2C)C(C)(C)CCC3(C)C)o1 [Compound 20]
Ki [2]: > 1 µM
EC50 [3]: > 10 µM
Ki [4]: > 1 µM
Ki [5]: > 10 µM
Ki [6]: > 1 µM
Ki [7]: 3 to 5 µM
Ki [8]: > 1 µM
Ki [9]: > 1 µM
Ki [10]: > 1 µM

Kb [11]: 0.0063 µM
Range of Plasma Conc. ([1]; 20 mg/kg ip): 0.4 µM
Range of Plasma Conc. ([1]; 40 mg/kg po): 0.34 µM
SMILES: Cc1cc2c(cc1Cc1ccc(C(=O)NCc3cccc(CNc4ccnc(NC[C@@H]5CCCO5)n4)c3)o1)C(C)(C)CCC2(C)C [Compound 136]
% Testosterone suppression ([1]; 20 mg/kg ip): 72%
Suppression Duration ([1]; 20 mg/kg ip): 6 h
time of % Testosterone suppression ([1]; 20 mg/kg ip): 6 h
% Testosterone suppression ([1]; 40 mg/kg po): 46%
Suppression Duration ([1]; 40 mg/kg po): 4 h
time of % Testosterone suppression ([1]; 40 mg/kg po): 4 h
testosterone levels ([1]; 6 hours post ip injection, vs vehicle, p<0.05): suppressed testosterone levels
